Test results reported in patent US20110201105A1, “LACTATION-ASSOCIATED POLYPEPTIDES” (Dairy Australia Limited, priority 2007, published 2011).

B1: LAM 17: FGL2: Fibrinogen like-1 (Table 24); tammar polypeptide SEQ ID NO 47, bovine SEQ ID NO 107 (protein, UniProt Q29RY7 16-441, looked up)
Fibroleukin: TYGFLVVANNETEEIKDEAAQNACRVRLESRGRCEEEGECPYQVNLPPLTIQLPKQFSRIEEVFKEVQNLKEIVNSLKKTCQDCKLQADDSRDPGRNGLLLPGTGAPGETGDNRVRELEGEVNKLSSDLKNAKEEIDVLQGRLEKLNLVNMNNIEQYVDSKVANLTFVVNSLDGKCSSKCPRQEQIQSLPVQQHLIYKDCSEYYTIGKRSSELYRVTPEPRNSSFEVFCDMETMAGGWTVLQARVDGSTNFTRTWQDYKVGFGNLRREFWLGNDKIHLLTKSKDMILRIDLEDFNGIKLYALYDHFYVANEFLKYRLHIGNYNGTAGDALRFSKHYNHDLKFFTTPDRDNDRYPSGNCGLYYSSGWWFDACLSANLNGKYYHQKYRGVRNGIFWGTWPGISEAQPGGYKSSFKEVKMMIRPKHFKP

Legend:
chicks = assay: Chick growth assay (in ovo injection, weight at hatching); type: in vivo; conditions: for Chick weight: bovine polypeptides in conditioned media, 1 ml in ovo on day 16 of incubation, weighed on day of hatching, Saline 51.0
Experimental: FIG. 5. Chick growth assay by measuring weight. 10 LAMs (being bovine homologues having homology to specific Tammar ESTs), 3 known bovine cathelicidins, and four bovine cathelicidin variants were tested. Conditioned media containing a LAM polypeptides or bovine cathelicidins or variants thereof was diluted in a total of 1 ml of normal saline. Eggs on day 16 of incubation were injected with 1 ml of the media containing the into the broad end of the egg. Chicks were weighed on day of hatching. The overall condition of the chick was assessed including the possible presence of stumpy legs and/or loss of down feathers.
Conditioned media containing LAM polypeptides or bovine cathelicidins or variants thereof were diluted in a total of 1 ml of normal saline. Eggs on day 16 of incubation were injected in ovo with 1 ml of LAM polypeptides or bovine cathelicidins or variants thereof into the broad end of the egg. Chicks were weighed on day of hatching. Controls included saline only, or saline and 10 mg/ml of a peptide as a random peptide control.
As set out in Table 23, the left column indicates the polypeptide used in the assay while the right column contains chick weight in grams as a measurement of chick growth. Bolded numbers represent a chick(s) larger than the controls and more than 2 standard deviations from the mean. In addition, bolded numbers represent chicks that have been killed. The mean represents the weight of all the chicks tested within this experiment.

AGS cells = assay: Cell growth using bovine cathelicidin variants in AGS cells (SRB assay); type: cell-based, human; set-up: unit not given here; conditions: 72 hours; for cell growth Replicate 3: -ve control 0.233; for cell growth Replicate 1: -ve control 0.247; for cell growth Replicate 4: -ve control 0.265; for cell growth Replicate 2: -ve control 0.316; for cell growth Mean: -ve control mean 0.265
Experimental: A cellular growth assay was performed using seven bovine cathelicidin (CATHL) variants, namely CATHL1, 4, and 6 which are known in the art (the relevant sequences can be obtained using the following hyperlink: http://www.ncbi.nlm.nih.gov/entrez/query.fcqi?db=unigene&cmd=search&term=cathelicidin) and bovine Cathelicidins 8, 9, 10 and 11 (being LAMs 32.8, 32.9, 32.10 and 32.11, respectively) as identified herein and which are derived from LAM 32. The bovine cathelicidin associated LAMs were derived by sequence comparison to the tammar polynucleotide sequence of LAM 32.
The growth rate of AGS cells was assessed in the presence of the cathelicidins. Equal numbers of human gastric epithelial AGS cells were cultured in either control media or media conditioned with bovine cathelicidins for 72 hours in a 1:10 dilution of serum and antibiotic-free Optimem. Cells were then fixed and a Sulforhodamine B (SRB) colorimetric assay was undertaken as described in Journal of Immunological Methods 208: 151-158, K. T. Papazisis, G. D. Geromichalos, K. A. Dimitriadis, A. H. Kortsaris (1997), ‘Optimization of the sulforhodamine B colorimetric assay’.
Briefly, cells were fixed directly by incubation with 10% trichloroacetic acid for 1 hour at 4° C., washed with water, air-dried overnight and then stained with 0.4% w/v sulforhodamine B, 1% acetic acid solution for 10 minutes at room temperature. Cell were again washed with 1% acetic acid and air-dried, then counted in triplicate.

ERK = ERK assay for cell growth-promoting activity (TGR assay), Swiss 3T3 fibroblast cells; type: cell-based; conditions: tammar LAM corresponding to the bovine sample of Table 24
Experimental: (§1) Plasmids containing Tammar wallaby LAMs were directionally cloned into the expression vector pCMV Sport 6.0, and then transfected into the human kidney cell line HK293. A total of 1 μg of LAM-containing plasmid DNA and 10 ng of pEGFP-C1 plasmid was introduced into 70% confluent HK293 cells in 2 cm^2 wells containing 500 ul of opti-MEM-1 media. Transfection success was assessed by observing green fluorescence of cells by fluorescent microscopy. After 48 hours conditioned media containing the secreted polypeptide was collected and frozen at −20° C. The media containing the secreted polypeptides was then used directly in a variety of bioactivity assays. For the assays described below, samples of secreted polypeptides were aliquoted into individual wells of 96 or 384 well plates and stored, prior to assaying, either frozen or lyophilized.
(§2) A negative control created by transfection with an insertless vector was used in all assays. For the assays described in Examples 4A, 4B, 4C and 4D results for samples were in the form of relative fluorescence units (RFU) as described herein. […] In some cases, RFU less than two standard deviations from the mean were considered significant if the LAM sample in question produced a positive result in another assay.
Extracellular signal-regulated protein kinase (ERK) is a common and central signal transduction pathway component of tyrosine kinase receptor. Activation of ERK is indicative of an extracellular proliferation signal and provides an index of a growth promoting agent.
Swiss 3T3 fibroblast cells were plated into 384 well plates, grown to confluence and starved overnight with serum-free medium. Cells were then treated for 10 minutes with a LAM polypeptide prepared as described above. Cells were then lysed and assayed for activation of ERK. Samples were assessed for changes in the activity of ERK.
The results of ERK activation assays are shown in Table 6 as relative fluorescence units (RFU). […] These same samples are equated with LAM numbers as represented in Table 7. […]

[1] = tested on: HSC-2 oral epithelial cells; assay: Cell viability assay to assess anti- and pro-apoptotic effects (vinblastine, Alamar Blue); type: cell-based; conditions: HSC-2 cells
Experimental: as §1, §2
Vinblastine is a commonly used cytotoxic agent used in chemotherapy. It induces apoptosis in a wide variety of cell types. Caspase activation and DNA fragmentation are hallmarks of the apoptotic process.
Aliquots of the secreted polypeptide samples in 96 well plates were pipetted onto HSC-2 oral epithelial cells and the cells left for 24 hours. After this time, the cells were treated with vinblastine to induce apoptosis. After a further 48 hours, the cells were analyzed for survival using a vital dye, namely Alamar Blue (resazurin) fluorescent dye (TGR BioSciences Pty Ltd, Adelaide, Australia). This dye method is a TGR proprietary assay technology and as such would be known by a person skilled in the art. Internal controls for induction of cell death via apoptosis as well as assay performance were also included on each plate. Cell survival measurements with this technique reflected the degree of apoptosis.

p38 MAPK = p38 MAPK assay of inflammatory activity in the presence of LPS, RAW macrophage cells; type: cell-based
Experimental: as §1
A negative control created by transfection with an insertless vector was used in all assays. For the assays described in Examples 4A, 4B, 4C and 4D results for samples were in the form of relative fluorescence units (RFU) as described herein. […]
Activation of p38 MAPK was assessed in RAW macrophage cells in the presence of lipopolysaccharide (LPS), which is a potent stimulator of the immune system and which mimics bacterial infection, thereby providing a model system for inflammation. […]

Molecule | Chick weight (chicks) | death / overall condition of chick (chicks; in ovo injection on day 16 of incubation) | cell growth Replicate 3 (AGS cells) | cell growth Replicate 1 (AGS cells) | cell growth Replicate 4 (AGS cells) | cell growth Replicate 2 (AGS cells) | cell growth Mean (AGS cells) | tammar ERK activity (ERK) | RFU (pro-apoptotic activity) ([1]; Alamar Blue, Mean RFU 1758076, SD RFU 108156) [RFU] | anti- or pro-apoptotic activity (RFU versus mean) ([1]; text summary of Tables 8-11) | anti-inflammatory activity (RFU significantly below the mean) (p38 MAPK; RAW macrophage cells with LPS, text summary of Tables 14 and 15) | RFU (p38 inhibition, anti-inflammatory activity) (p38 MAPK; RAW macrophage cells, 30 minutes sample then LPS 30 minutes, Mean RFU 35980, SD RFU 4227, negative control 45833 RFU) [RFU]
CATHL5: bovine cathelicidin 5 (known sequence) (GGLRSLGRKILRAWKKYGPIIVPIIRIG; UniProt P54229 132-159, looked up) [reference compound] | Killed | caused death of chicks | 0.382 | 0.423 | 0.415 | 0.441 | 0.415 | yes | – | – | – | –
CATHL2: bovine cathelicidin listed under LAM32, sample number 15 (RFRPPIRRPPIRPPFYPPFRPPIRPPIFPPIRPPFRPPLGPFP; UniProt P19660 131-173, looked up) | – | – | – | – | – | – | – | yes | – | – | – | –
CATHL1: bovine cathelicidin 1, known in the art (RLCRIVVIRVCR; UniProt P22226 144-155, looked up) [reference compound] | 52.8 grams | – | 0.303 | 0.412 | 0.378 | 0.419 | 0.378 | yes | – | – | – | –
B1 | 49.2 grams | – | – | – | – | – | – | – | 1478245 | pro-apoptotic activity | anti-inflammatory activity | 20814
